Laboratory results: patent US20260125382A1, “COMPOUNDS FOR INHIBITING OR DEGRADING CDK2 AND/OR CDK9 AND MEDICINAL USE THEREOF” (KOREA RESEARCH INSTITUTE OF CHEMICAL TECHNOLOGY, priority 2022, published 2026)

Experiments:
CDK9 = target: T1, CDK9 (Homo sapiens, UniProt P50750); test: CDK protein degradation activity (Western blotting), CDK9; type: cell-based; details: MDA-MB-231 cells, 16 hours, Western blot
T1 construct: endogenous in cells; host or cells: MDA-MB-231
Outline: (§1)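 MDA-MB-231 cells were treated with compound at final concentrations of 100 nM, 1 μM and 10 μM, or DMSO vehicle, for 16 h. Lysates were resolved by SDS-PAGE and immunoblotted for CDK2, CDK9 and tubulin, with band intensities quantified densitometrically.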

CDK2 = target: T2, CDK2 (Homo sapiens, UniProt P24941); test: CDK protein degradation activity (Western blotting), CDK2; type: cell-based; details: MDA-MB-231 cells, 16 hours, Western blot
T2 construct: endogenous in cells; host or cells: MDA-MB-231
Outline: as §1

T1 sequence (P50750 whole entry): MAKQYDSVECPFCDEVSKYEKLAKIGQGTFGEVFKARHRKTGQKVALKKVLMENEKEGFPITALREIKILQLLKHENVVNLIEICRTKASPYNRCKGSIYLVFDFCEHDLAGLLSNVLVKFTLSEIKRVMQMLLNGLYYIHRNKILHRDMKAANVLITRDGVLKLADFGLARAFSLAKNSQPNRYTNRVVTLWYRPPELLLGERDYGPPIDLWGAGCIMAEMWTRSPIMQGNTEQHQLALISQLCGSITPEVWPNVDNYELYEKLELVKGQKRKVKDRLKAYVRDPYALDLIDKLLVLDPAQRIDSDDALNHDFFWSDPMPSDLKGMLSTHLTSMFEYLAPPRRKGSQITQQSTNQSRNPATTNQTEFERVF

Enzyme degradation CDK9 (% remaining) @ 0.1 μM (CDK9) | Enzyme degradation CDK9 (% remaining) @ 1 μM (CDK9) | Enzyme degradation CDK9 (% remaining) @ 10 μM (CDK9) | Enzyme degradation CDK2 (% remaining) @ 0.1 μM (CDK2) | Enzyme degradation CDK2 (% remaining) @ 1 μM (CDK2) | Enzyme degradation CDK2 (% remaining) @ 10 μM (CDK2) | Structure (SMILES)
20% | 20% | 10% | 70% | 70% | 50% | O=C1CC[C@H](N2C(=O)C=C(Nc3cccc(CC(=O)N4CCC5(CC4)CC(N4CCN(c6ccc(Nc7ncnc8c7ncn8[C@H]7C[C@@H](NC(=O)Cc8ccccc8)C7)cc6)CC4)C5)c3)C2=O)C(=O)N1 [Compound 192, N-((1s,3s)-3-(6-((4-(4-(7-(2-(3-((1-(2,6-dioxopiperidin-3-yl)-2,5-dioxo-2,5-dihydro-1H-pyrrol-3-yl)amino)phenyl)acetyl)-7-azaspiro[3.5]nonan-2-yl)piperazin-1-yl)phenyl)amino)-9H-purin-9-yl)cyclobutyl)-2-phenylacetamide]
70% | 50% | 40% | 50% | 10% | 10% | COc1ccc(C(=O)N2CCC(CC(=O)N3CCN(c4ccc(Nc5ncnc6c5ncn6[C@H]5C[C@@H](NC(=O)Cc6ccccc6)C5)cc4)CC3)CC2)cc1N1CCC(=O)NC1=O [Compound 194, N-((1s,3s)-3-(6-((4-(4-(2-(1-(3-(2,4-dioxotetrahydropyrimidin-1(2H)-yl)-4-methoxybenzoyl)piperidin-4-yl)acetyl)piperazin-1-yl)phenyl)amino)-9H-purin-9-yl)cyclobutyl)-2-phenylacetamide]
20/20/20% | 20/20/20% | 20/20/20% | 100/100/100% | 100/100/100% | 100/100/100% | O=C(Cc1cccc(NC2=CC(=O)N(C3CCC(=O)NC3=O)C2=O)c1)NC[C@H]1CC[C@H](CN2CCN(c3ccc(Nc4ncnc5c4ncn5[C@H]4C[C@@H](NC(=O)Cc5ccccc5)C4)cc3)CC2)CC1 (stereo partly drawn) [Compound 200, 2-(3-((1-(2,6-dioxopiperidin-3-yl)-2,5-dioxo-2,5-dihydro-1H-pyrrol-3-yl)amino)phenyl)-N-(((1r,4r)-4-((4-(4-((9-((1s,3s)-3-(2-phenylacetamido)cyclobutyl)-9H-purin-6-yl)amino)phenyl)piperazin-1-yl)methyl)cyclohexyl)methyl)acetamide]

Further lines, the compound ahead of its results:

Structure (SMILES) | Enzyme degradation CDK9 (% remaining) @ 0.1 μM (CDK9) | Enzyme degradation CDK9 (% remaining) @ 1 μM (CDK9) | Enzyme degradation CDK9 (% remaining) @ 10 μM (CDK9) | Enzyme degradation CDK2 (% remaining) @ 0.1 μM (CDK2) | Enzyme degradation CDK2 (% remaining) @ 1 μM (CDK2) | Enzyme degradation CDK2 (% remaining) @ 10 μM (CDK2)
O=C1CC[C@H](N2C(=O)C=C(N3CCC(C(=O)N4CCC5(CC4)CC(N4CCN(c6ccc(Nc7ncnc8c7ncn8C7CC(NC(=O)Cc8ccccc8)C7)cc6)CC4)C5)CC3)C2=O)C(=O)N1 (stereo partly drawn) [Compound 193, N-((1s,3s)-3-(6-((4-(4-(7-(1-(1-(2,6-dioxopiperidin-3-yl)-2,5-dioxo-2,5-dihydro-1H-pyrrol-3-yl)piperidin-4-carbonyl)-7-azaspiro[3.5]nonan-2-yl)piperazin-1-yl)phenyl)amino)-9H-purin-9-yl)cyclobutyl)-2-phenylacetamide] | 0% | 10% | 10% | 20% | 20% | 10%
O=C1CCN(c2coc3cc(C(=O)N4CCC(CC(=O)N5CCN(c6ccc(Nc7ncnc8c7ncn8[C@H]7C[C@@H](NC(=O)Cc8ccccc8)C7)cc6)CC5)CC4)ccc23)C(=O)N1 [Compound 195, N-((1s,3s)-3-(6-((4-(4-(2-(1-(3-(2,4-dioxotetrahydropyrimidin-1(2H)-yl)benzofuran-6-carbonyl)piperidin-4-yl)acetyl)piperazin-1-yl)phenyl)amino)-9H-purin-9-yl)cyclobutyl)-2-phenylacetamide] | 20% | 10% | 10% | 80% | 50% | 50%
O=C1CC[C@H](N2C(=O)C=C(Nc3cccc(CC(=O)N4CCC(CC(=O)N5CCN(c6ccc(Nc7ncnc8c7ncn8[C@H]7C[C@@H](NC(=O)Cc8ccccc8)C7)cc6)CC5)CC4)c3)C2=O)C(=O)N1 [Compound 196, N-((1s,3s)-3-(6-((4-(4-(2-(1-(2-(3-((1-(2,6-dioxopiperidin-3-yl)-2,5-dioxo-2,5-dihydro-1H-pyrrol-3-yl)amino)phenyl)acetyl)piperidin-4-yl)acetyl)piperazin-1-yl)phenyl)amino)-9H-purin-9-yl)cyclobutyl)-2-phenylacetamide] | 30% | 40% | 40% | 80% | 100% | 100%
O=C1CC[C@H](N2C(=O)C=C(N3CCC(C(=O)N4CCC(CC(=O)N5CCN(c6ccc(Nc7ncnc8c7ncn8[C@H]7C[C@@H](NC(=O)Cc8ccccc8)C7)cc6)CC5)CC4)CC3)C2=O)C(=O)N1 [Compound 197, N-((1s,3s)-3-(6-((4-(4-(2-(1-(1-(1-(2,6-dioxopiperidin-3-yl)-2,5-dioxo-2,5-dihydro-1H-pyrrol-3-yl)piperidin-4-carbonyl)piperidin-4-yl)acetyl)piperazin-1-yl)phenyl)amino)-9H-purin-9-yl)cyclobutyl)-2-phenylacetamide] | 10% | 10% | 0% | 30/30/30% | 30/30/30% | 30/30/30%
COc1ccc(C(=O)NC[C@H]2CC[C@H](CN3CCN(c4ccc(Nc5ncnc6c5ncn6[C@H]5C[C@@H](NC(=O)Cc6ccccc6)C5)cc4)CC3)CC2)cc1N1CCC(=O)NC1=O [Compound 198, 3-(2,4-dioxotetrahydropyrimidin-1(2H)-yl)-4-methoxy-N-(((1r,4r)-4-((4-(4-((9-((1s,3s)-3-(2-phenylacetamido)cyclobutyl)-9H-purin-6-yl)amino)phenyl)piperazin-1-yl)methyl)cyclohexyl)methyl)benzamide] | 50% | 30% | 10% | 0/0/0% | 0/0/0% | 0/0/0%
O=C1CCN(c2coc3cc(C(=O)NC[C@H]4CC[C@H](CN5CCN(c6ccc(Nc7ncnc8c7ncn8[C@H]7C[C@@H](NC(=O)Cc8ccccc8)C7)cc6)CC5)CC4)ccc23)C(=O)N1 [Compound 199, 3-(2,4-dioxotetrahydropyrimidin-1(2H)-yl)-N-(((1r,4r)-4-((4-(4-((9-((1s,3s)-3-(2-phenylacetamido)cyclobutyl)-9H-purin-6-yl)amino)phenyl)piperazin-1-yl)methyl)cyclohexyl)methyl)benzofuran-6-carboxamide] | 20% | 30% | 30% | 50% | 60% | 50%
